Results taken from ChEMBL document CHEMBL5604063, “ASAP - DENV-2 NS2B-NS3 protease fluorescence dose response” (2024).
Several values for one entry are separate records, joined by “and”; a condition that tells them apart may be missing. Identical values can stand only once.

Key:
Genome polyprotein [1] = molecular target: T1, Genome polyprotein (dengue virus type 2, UniProt P29990); assay type: functional, Thailand/16681/1984
Genome polyprotein [2] = molecular target: T1, Genome polyprotein; assay type: functional, Thailand/16681/1984; remark: listed apart in the source

T1 sequence (P29990 1346-1475 limits assumed): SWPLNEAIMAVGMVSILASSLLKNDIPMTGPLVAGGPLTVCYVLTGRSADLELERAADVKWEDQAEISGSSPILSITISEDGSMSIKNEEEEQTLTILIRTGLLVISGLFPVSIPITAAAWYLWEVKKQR
T1 sequence (P29990 1476-2093 limits assumed): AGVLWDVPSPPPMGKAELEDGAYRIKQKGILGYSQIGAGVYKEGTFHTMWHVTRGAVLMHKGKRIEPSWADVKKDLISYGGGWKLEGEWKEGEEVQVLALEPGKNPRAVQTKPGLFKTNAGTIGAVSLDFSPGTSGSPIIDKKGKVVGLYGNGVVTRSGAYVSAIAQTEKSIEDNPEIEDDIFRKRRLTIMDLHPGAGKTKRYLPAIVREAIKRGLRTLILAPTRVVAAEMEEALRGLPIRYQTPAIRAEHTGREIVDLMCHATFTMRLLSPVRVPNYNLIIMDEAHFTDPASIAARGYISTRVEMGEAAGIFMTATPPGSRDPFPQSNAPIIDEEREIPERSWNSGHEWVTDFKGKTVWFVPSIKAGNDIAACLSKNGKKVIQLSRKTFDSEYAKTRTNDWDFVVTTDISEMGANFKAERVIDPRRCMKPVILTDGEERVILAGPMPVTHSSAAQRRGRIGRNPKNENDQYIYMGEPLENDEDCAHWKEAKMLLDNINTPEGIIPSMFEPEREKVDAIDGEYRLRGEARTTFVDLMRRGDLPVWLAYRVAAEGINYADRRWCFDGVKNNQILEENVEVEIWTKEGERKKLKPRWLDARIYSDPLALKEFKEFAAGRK

SMILES | IC50 (Genome polyprotein [1]) | IC50 (Genome polyprotein [2])
NCc1cccc(NC(=O)[C@H](NC(=O)OCc2ccccc2)C2CCN(C(=O)Cc3ccccc3)CC2)c1 | > 99.5 µM | > 100 µM
N#Cc1c[nH]c2c(C(=O)Nc3ccc4c(c3)CNC4)cccc12 | > 99.5 µM | > 100 µM
N[C@H]1CC[C@H](c2ccc(NC(=O)c3cc(Cl)cc4[nH]ncc34)cc2)C1 | > 99.5 µM | > 100 µM
O=C(Nc1ccc2c(c1)CNC2)c1ccc(OC(F)(F)F)cc1 | > 99.5 µM | > 100 µM
O=C(Nc1ccc2c(c1)CS(=O)(=O)C2)c1cc(Cl)cc2[nH]ncc12 | > 99.5 µM | > 100 µM
CC1(C)CCC(F)(F)C[C@H]1C(=O)Nc1cccc(CN)c1 | > 99.5 µM | > 100 µM
CCc1sc(C(=O)Nc2cccc(-c3nnn[nH]3)c2)cc1C | > 99.5 µM | > 100 µM
CS(=O)(=O)c1cc(CN)cc([C@@H]2C[C@H]2c2cc(Cl)cc(NC(=O)OCc3ccccc3)c2)c1 | > 99.5 µM | > 100 µM
NC[C@H]1C[C@H]1NC(=O)c1cc(Cl)cc(NC(=O)OCc2ccccc2)c1 | > 99.5 µM | > 100 µM
NC1(c2ccccc2NS(=O)(=O)c2ccc(Oc3ccccc3Cl)cc2)CC1 | > 99.5 µM | > 100 µM
CCC[C@H](Oc1ccc(Cl)cc1C)C(=O)Nc1cccc(CN)c1 | > 99.5 µM | > 100 µM
O=C(Nc1cc(-c2cccnc2)ccn1)c1cc2n(n1)CC(F)(F)C2 | > 99.5 µM | > 100 µM
O=C(Nc1cc(-c2cccnc2)ccn1)c1csc(C[C@H]2CCCNC2)n1 | > 99.5 µM | > 100 µM
Cc1nnc(CN2CCC([C@H](NC(=O)OCc3ccccc3)C(=O)Nc3cccc(CN)c3)CC2)s1 | > 99.5 µM | > 100 µM
CNC(=O)c1ccnc(NC(=O)c2cc(C3CC3)n(C)c2C)c1 | > 99.5 µM | > 100 µM
O=C(Nc1cc(-c2cccnc2)ccn1)c1cc(C2CC2)no1 | > 99.5 µM | > 100 µM
N#C[C@H](Nc1cc(Cl)cc(NC(=O)OCc2ccccc2)c1)c1ccc(-c2nn[nH]n2)cc1 | 9.45 µM | 6.86 µM and 5.66 µM
C=CC[C@H]1NCc2cc(NC(=O)c3cc(F)cc4c3CC(=O)N4)ccc21 | 31.9 µM | 31.9 µM and 23.6 µM
N#C[C@H](Nc1ccc2c(c1)CNC2)c1cncc2ccccc12 | > 99.5 µM | > 100 µM
Cc1c(C(=O)Nc2cc(C(=O)N3Cc4cn[nH]c4C3)ccn2)cc(C2CC2)n1C | > 99.5 µM | > 100 µM
O=C(Nc1cc([C@H]2CCOC2)ccn1)c1cc(Br)cc2[nH]ccc12 | > 99.5 µM | > 100 µM

SMILES | IC50 (Genome polyprotein [1]) | IC50 (Genome polyprotein [2])
C=CC[C@H]1NCc2cc(NC(=O)c3cc(Cl)cc4[nH]ncc34)ccc21 | > 99.5 µM | > 100 µM
Clc1cc(/C=C/c2cccc(-c3nn[nH]n3)c2)c2cn[nH]c2c1 | > 99.5 µM | > 100 µM
NCc1cccc(NC(=O)[C@H](NC(=O)OCc2ccccc2)c2ccc(OCCc3cscn3)cc2)c1 | > 99.5 µM | > 100 µM
C=CC[C@H](Nc1cccc(C(=O)O)c1)c1cc(Cl)cc2[nH]ncc12 | > 99.5 µM | > 100 µM
N#C[C@H](Nc1ccc2c(c1)CNC2)c1cc(Cl)cc(C2CC2)c1 | > 99.5 µM | > 100 µM
CS(=O)(=O)c1ccc(CN)cc1NC(=O)c1cc(Cl)cc(NC(=O)OCc2ccccc2)c1 | > 99.5 µM | > 100 µM
C[C@H](C1CC1)n1ncc2c(C(=O)Nc3ccc4c(c3)CNC4)cc(C3CC3)nc21 | > 99.5 µM | > 100 µM
O=C(NCC(F)F)[C@H](Nc1ccc2c(c1)CNC2)c1cc(Cl)ccc1Cl | > 99.5 µM | > 100 µM
C=CC[C@H](Nc1cc(Cl)cc(NC(=O)OCc2ccccc2)c1)c1ccc(-c2nn[nH]n2)cc1 | 7.02 µM | 5.69 µM and 5.81 µM
O=C(NCC(F)F)[C@H](Nc1ccc2c(c1)CNC2)c1cc(Cl)cc2c1CCC2 | > 99.5 µM | > 100 µM
NCCCc1ccnc(NC(=O)c2nnc(C3CC3)s2)c1 | > 99.5 µM | > 100 µM
CNCc1cc(Cl)cc(C(=O)Nc2cccc(CN)c2)c1 | > 99.5 µM | > 100 µM
O=C(Nc1cc(Cl)cc(-c2cnn(Cc3ccc(C(=O)O)cc3)c2)c1)OCc1ccccc1 | 18.2 µM | 8.1 µM
CC(C)NC(=O)[C@H](Nc1ccc2c(c1)CNC2)c1cc(F)cc2[nH]ncc12 | > 99.5 µM | > 100 µM
C=CCNC(=O)C1(NC(=O)c2cccc3c2CC(=O)N3)CCCCC1 | > 99.5 µM | > 100 µM
NCc1cccc(NC(=O)c2cc(Cl)ccc2Oc2cccc(Cl)c2)c1 | > 99.5 µM | > 100 µM
NCc1cccc(NC(=O)[C@H](NC(=O)OCc2ccccc2)C2CCN(C(=O)Cn3ccnc3)CC2)c1 | > 99.5 µM | > 100 µM
NCc1cccc(NS(=O)(=O)c2cc(Cl)cc(NC(=O)OCc3ccccc3)c2)c1 | > 99.5 µM | > 100 µM
CN1CCc2c([nH]c3ccc(C(=O)Nc4ccc5c(c4)CNC5)cc23)C1=O | > 99.5 µM | > 100 µM
CCOC(=O)[C@H]1[C@H](c2cccc(CN)c2)[C@H]1c1cc(Cl)cc(NC(=O)OCc2ccccc2)c1 | > 99.5 µM | > 100 µM
CN1CCC(COc2cccc([C@H](NC(=O)OCc3ccccc3)C(=O)Nc3cccc(CN)c3)c2)CC1 | > 99.5 µM | > 100 µM

SMILES | IC50 (Genome polyprotein [1]) | IC50 (Genome polyprotein [2])
CNC(=O)[C@H](Nc1cccc(-c2nn[nH]n2)c1)c1cc(Cl)cc(NC(=O)OCc2ccccc2)c1 | 48.6 µM | 28.2 µM and 21.1 µM
Cn1nc(CNc2cc([C@H]3CCOC3)ccn2)cc1C1CC1 | > 99.5 µM | > 100 µM
Cc1c(C(=O)Nc2cc(C(=O)Nc3cccnc3)ccn2)cc(C2CC2)n1C | > 99.5 µM | > 100 µM
NCc1cccc(NC(=O)[C@H](NC(=O)OCc2ccccc2)C2CCN(S(=O)(=O)c3cccnc3)CC2)c1 | > 99.5 µM | > 100 µM
O=C(Nc1cc(Cl)cc(C(=O)Nc2nccn2C2CNC2)c1)OCc1ccccc1 | > 99.5 µM | > 100 µM
CCn1c(=O)c(N2CC[C@H](CO)C2)nc2cc(C(=O)N(C)C)ccc21 | > 99.5 µM | > 100 µM
CNC(=O)[C@H](Nc1cccc([C@H]2CCOC2)c1)c1cc(C2CC2)n(C)n1 | > 99.5 µM | > 100 µM
CC1=C(c2cc(NC(=O)c3cc(Cl)cc4[nH]ncc34)cc3c2CNC3)CCC1=O | > 99.5 µM | > 100 µM
NCc1cccc(NC(=O)c2cc(Cl)ccc2OCC(F)(F)F)c1 | > 99.5 µM | > 100 µM
CNC(=O)[C@H](Nc1ccc2c(c1)CNC2)c1cc(Cl)cc(C2CC2)c1 | > 99.5 µM | > 100 µM
O=C(c1cc(Cl)cc2[nH]ncc12)N1CC[C@]2(CCNC2)C1 | > 99.5 µM | > 100 µM
Nc1cccc(NC(=O)c2cc(Cl)cc(NC(=O)OCc3ccccc3)c2)n1 | > 99.5 µM | > 100 µM
Cc1cc([C@H](Nc2ccc3c(c2)CNC3)C(=O)NCC(F)F)cc(C(F)(F)F)c1 | > 99.5 µM | > 100 µM
Cn1cc(CCc2nc3c(C(=O)Nc4ccc5c(c4)CNC5)cc(Cl)cc3[nH]2)cn1 | 32.5 µM | 19.4 µM and 21.6 µM
NCc1cccc(-c2csc3cc(C(=O)Nc4ccc5c(c4)CNC5)ccc23)c1 | 22.4 µM and 14.7 µM | > 100 µM
Clc1cc([C@@H]2C[C@H]2c2cccc(-c3nn[nH]n3)c2)c2cn[nH]c2c1 | 66.2 µM | 20.4 µM and 23.8 µM
NCCC1(C(=O)Nc2ccc3c(c2)C(=O)OC3)CCCC1 | > 99.5 µM | > 100 µM
O=C(Nc1ccc2c(c1)CNC2)c1cccc2c1[C@]1(CCN(C(=O)OCc3ccccc3)C1)C(=O)N2 | > 99.5 µM | > 100 µM
Cc1cc(CC(=O)O)ccc1Cc1c[nH]c2ccc(Cl)cc12 | > 99.5 µM | > 100 µM
CC(C)(C)OC(=O)N1Cc2cc(NC(=O)c3cc(Cl)cc4[nH]ncc34)cc(Br)c2C1 | > 99.5 µM | > 100 µM
O=C1Cc2cc(NC(=O)c3cc(Cl)cc4[nH]ncc34)ccc2N1 | > 99.5 µM | > 100 µM

SMILES | IC50 (Genome polyprotein [1]) | IC50 (Genome polyprotein [2])
O=C(Nc1ccc2c(c1)CNC2)c1cc(Cl)cc2c1cnn2C1CCC1 | > 99.5 µM | > 100 µM
CCCCCn1cc(C(=O)Nc2cccc(CN)c2)c2ccccc21 | > 99.5 µM | > 100 µM
Cc1ccc(NC(=O)c2cc(Cl)ccc2Cl)c(C(=O)Nc2cccc(CN)c2)c1 | > 99.5 µM | > 100 µM
NCc1ccc(NS(=O)(=O)c2ccc(Oc3ccccc3Cl)cc2)cc1 | > 99.5 µM | > 100 µM
O=C(Nc1cc(Cl)cc(C(=O)Nc2cccc([C@H]3CNCCO3)c2)c1)OCc1ccccc1 | > 99.5 µM | > 100 µM
NCc1cccc(NC(=O)[C@H](NC(=O)OCc2ccccc2)c2ccc(OCc3ccccc3)c(Br)c2)c1 | 30.4 µM | > 100 µM
Cc1c(C(=O)Nc2ccc3c(c2)CNCCO3)cc(C2CC2)n1C | > 99.5 µM | > 100 µM
COc1ccc(Cl)cc1[C@H](Nc1ccc2c(c1)CNC2)C(=O)NCC(F)F | > 99.5 µM | > 100 µM
NCc1cc(C(F)(F)F)cc(-c2ccc3[nH]c(C(=O)O)cc3c2)n1 | > 99.5 µM | > 100 µM
CCc1c(C(=O)Nc2cccc(CN)c2)c2cc(Cl)ccc2n1C | > 99.5 µM | > 100 µM
Cn1ncc(CN2CCC([C@H](NC(=O)OCc3ccccc3)C(=O)Nc3cccc(CN)c3)CC2)n1 | > 99.5 µM | > 100 µM
CC1(C)C(=O)N[C@H]2CCCN(C(=O)Nc3ccc4c(c3)CNC4)[C@H]21 | > 99.5 µM | > 100 µM
Cc1cc(Cl)cc(C(=O)Nc2cccc(CN)c2)n1 | > 99.5 µM | > 100 µM
Cc1c(C(=O)Nc2cc(-c3cccnc3)ccn2)cc(-c2ccccc2)n1C | > 99.5 µM | > 100 µM
CNC(=O)[C@H](Nc1ccc2c(c1)CNC2)c1cccc2[nH]c(C(F)(F)F)nc12 | > 99.5 µM | > 100 µM
CC(C)NC(=O)C[C@H]1NCc2cc(NC(=O)c3cc(Cl)cc4[nH]ncc34)ccc21 | > 99.5 µM | > 100 µM
CO[C@H]1Cc2ccc(NC(=O)c3cc(C4CC4)n(C)c3C)cc2C1 | > 99.5 µM | > 100 µM
O=C(Nc1ccc2c(c1)CNC2)c1cc(Cl)cc2cc[nH]c12 | > 99.5 µM | > 100 µM
O=C(Nc1ccc2nc[nH]c2c1)c1cc(F)cc2[nH]ncc12 | > 99.5 µM | > 100 µM
